According to patent US7772177B2, “BIR domain binding compounds” (Aegera Therapeutics, Inc., priority 2005, dated 2010):

Assays:
[1] = molecular target: T1, XIAP Bir2-Bir3-RING (GST-linker BIR2 BIR3RING) (Homo sapiens, UniProt P98170); assay: Caspase de-repression assay using cellular extracts (apoptosome), XIAP Bir2-Bir3-RING; assay type: biochemical; conditions: 293 cell S100 extract
T1 construct: made in house; host or cells: E. coli DH5-alpha
Experimental: (§1) 100 ug of 293 cell S100 extract and 0.25 uM-2 uM of GST-Xiap fusion protein (GST-BIR 3RING, GST-linker BIR2 BIR3RING) were co-incubated with serial dilutions of compound (0.02 uM-40 uM). Extracts were activated by adding 1 mM dATP, 0.1 mM ALLN, 133 ug Cytochrome C (final concentrations), and incubating at 37° C. for 25 minutes. All reactions and dilutions used S100 buffer (50 mM Pipes pH 7.0, 50 mM KCl, 0.5 mM EGTA pH 8.0, 2 mM MgCl2 supplemented with 1/1000 dilutions of 2 mg/ml Cytochalisin B, 2, mg/ml Chymotstatin, Leupeptin, Pepstatin, Antipain, 0.1M PMSF, 1M DTT). Final reaction volume was 30 ul. Caspase-3 activity was measured by overlaying 30 ul of a 0.4 mM DEVD-AMC solution. AMC cleavage was measured in a TECAN spectrophotometer at 360 nm excitation and 444 nm emission, on a kinetic cycle of 1 hour with readings taken every 5 minutes. Caspase activity was calculated as Vo of AMC fluorescence/sec. Caspase de-repression by our compounds were compared to fully activated extract and activated extract repressed by the presence of XIAP fusion protein.
(§2) Results: Compounds were also tested in the apoptosome assay and the linker-BIR2/caspase-3 inhibition assay and found to have IC50s in the following ranges: A: >10 μM; B: <10 μM; C: <1 μM, as shown in Table 7.

GST-XIAP BIR3RING = molecular target: T2, GST-XIAP BIR3RING (Homo sapiens, UniProt P98170); assay: Fluorescence polarization-based competition assay, XIAP Bir3-RING; assay type: binding
T2 construct: made in house; host or cells: E. coli DH5-alpha
T2 sequence (P98170 246-497): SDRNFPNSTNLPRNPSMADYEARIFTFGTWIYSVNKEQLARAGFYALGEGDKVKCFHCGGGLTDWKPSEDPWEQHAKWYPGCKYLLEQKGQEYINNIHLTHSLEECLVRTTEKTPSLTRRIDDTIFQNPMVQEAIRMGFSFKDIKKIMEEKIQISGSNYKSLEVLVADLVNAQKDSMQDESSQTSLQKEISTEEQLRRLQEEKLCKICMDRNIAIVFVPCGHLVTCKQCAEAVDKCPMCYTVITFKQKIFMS
Experimental: GST-XIAP BIR3RING: XIAP coding sequence amino acids 246-497 cloned into PGEX2T1 via BamH1 and AVA I. The plasmid was transformed into E. coli DH5α for use in protein expression and purification.
(§3) A fluorescent peptide probe, Fmoc-Ala-Val-Pro-Phe-Tyr(t-Bu)-Leu-Pro-Gly(t-Bu)-Gly-OH was prepared using standard Fmoc chemistry on 2-chlorotrityl chloride resin (Int. J. Pept. Prot. Res. 38:555-561, 1991). Cleavage from the resin was performed using 20% acetic acid in dichloromethane (DCM), which left the side chain still blocked. The C-terminal protected carboxylic acid was coupled to 4′-(aminomethyl)fluorescein (Molecular Probes, A-1351; Eugene, Oreg.) using excess diisopropylcarbodiimide (DIC) in dimethylformamide (DMF) at room temperature and was purified by silica gel chromatography (10% methanol in DCM). The N-terminal Fmoc protecting group was removed using piperidine (20%) in DMF, and purified by silica gel chromatography (20% methanol in DCM, 0.5% HOAc). Finally, the t-butyl side chain protective groups were removed using 95% trifluoroacetic acid containing 2.5% water and 2.5% triisopropyl silane. […] Compound #174 was also used as a fluorescent probe in this assay.
(§4) For all assays, the fluorescence and fluorescence-polarization was evaluated using a Tecan Polarion instrument with the excitation filter set at 485 nm and the emission filter set at 535 nm. For each assay, the concentration of the target protein was first establish by titration of the selected protein in order to produce a linear dose-response signal when incubated alone in the presence of the fluorescent probe. Upon establishing these conditions, the compounds potency (IC50) and selectivity, was assessed in the presence of a fix defined-amount of target protein and fluorescent probe and a 10 point serial dilution of the selected compounds. For each IC50 curve, the assays were run as followed: 25 ul/well of diluted compound in 50 mM MES buffer pH 6.5 were added into a black 96 well plate then 25 ul/well of bovine serum albumin (BSA) at 0.5 mg/ml in 50 mM MES pH 6.5. Auto-fluorescence for each compound was first assessed by performing a reading of the compound/BSA solution alone. Then 25 ul of the fluorescein probe diluted into 50 mM MES containing 0.05 mg/ml BSA were added and a reading to detect quenching of fluorescein signal done. Finally 25 ul/well of the target or control protein (GST-BIRs) diluted at the appropriate concentration in 50 mM MES containing 0.05 mg/ml BSA were added and the fluorescence polarization evaluated.
(§5) For each assay the relative polarization-fluorescence units were plotted against the final concentrations of compound and the IC50 calculated using the Grad pad prism software and/or Cambridge soft. The ki value were derived from the calculated IC50 value as described above and according to the equation described in Nikolovska-Coleska, Z. (2004) Anal Biochem 332, 261-273.
(§6) Compounds exemplified in Table 6 were tested and found to have IC50s in the following ranges: A: >10 μM; B: <10 μM; C: <1 μM using the fluorescence polarization assay, as shown in Table 5. Each of the IC50s was calculated from Graph Pad.

GST-HIAP1(cIAP-2) BIR 3 = molecular target: T3, GST-HIAP1(cIAP-2) BIR 3 (Homo sapiens, UniProt Q13489); assay: Fluorescence polarization-based competition assay, cIAP-2 Bir3; assay type: binding
T3 construct: made in house; host or cells: E. coli DH5-alpha
T3 sequence (Q13489 236-349): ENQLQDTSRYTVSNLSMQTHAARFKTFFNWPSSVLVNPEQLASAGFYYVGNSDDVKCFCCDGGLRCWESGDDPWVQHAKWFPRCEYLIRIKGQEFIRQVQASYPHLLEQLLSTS
Experimental: GST-HIAP1(cIAP-2) BIR 3: HIAP1 coding sequence from amino acids 236-349, cloned into PGex4T3 via BamH1 and XhoI. The plasmid was transformed into E. coli DH5α for use in protein expression and purification.
as §3, §4, §5, §6

[2] = molecular target: T4, caspase-3 inhibited by linker BIR2-BIR3-RING of XIAP (Homo sapiens, UniProt P98170); assay: Caspase-3 linker-BIR2-BIR3-RING derepression assay; assay type: biochemical
T4 construct: made in house; host or cells: E. coli DH5-alpha (GST-XIAP); E. coli AD494 (His-caspase-3)
T4 sequence (P98170 93-497): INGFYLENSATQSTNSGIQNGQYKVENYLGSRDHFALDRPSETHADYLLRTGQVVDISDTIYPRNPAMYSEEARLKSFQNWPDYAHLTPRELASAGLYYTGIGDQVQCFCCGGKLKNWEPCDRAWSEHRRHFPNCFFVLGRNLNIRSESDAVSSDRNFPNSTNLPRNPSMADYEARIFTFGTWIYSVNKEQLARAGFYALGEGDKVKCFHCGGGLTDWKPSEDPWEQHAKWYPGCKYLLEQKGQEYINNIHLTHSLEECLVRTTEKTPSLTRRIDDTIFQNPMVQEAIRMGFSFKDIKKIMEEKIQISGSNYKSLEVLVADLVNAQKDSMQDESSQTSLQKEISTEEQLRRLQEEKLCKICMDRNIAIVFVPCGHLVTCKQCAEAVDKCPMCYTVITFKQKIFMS
Experimental: In order to determine the relative activity of the selected compound against BIR2, an in vitro assay was used where caspase-3 was inhibited by linker-BIR2 or linker BIR2-BIR3-RING of XIAP. Briefly, 1.5 ul of the enzyme, 0.25 uM to 2 uM of GST-Xiap fusion protein (GST-linker BIR2, GST-linker BIR2BIR3RING) were co-incubated with serial dilutions of compound (80 uM-0.04 uM). Caspase 3 activity was measured by overlaying 25 ul of a 0.4 mM DEVD-AMC solution. Final reaction volume was 100 ul. All dilutions were performed in caspase buffer (50 mM Hepes pH 7.4, 100 mM NaCl, 10% sucrose, 1 mM EDTA, 10 mM DTT, 0.1% CHAPS (Stennicke, H. R., and Salvesen, G. S. (1997). Biochemical characteristics of caspase-3, -6, -7, and -8. J. Biol. Chem. 272, 25719-25723)).
The fluorescent AMC released from the caspase-3 hydrolysis of the substrate was measured in a TECAN spectrophotometer at 360 nm excitation and 444 nm emission, on a kinetic cycle of 30 minutes with readings taken every 2 minutes. Caspase activity was calculated as Vo of AMC fluorescence/sec. Caspase de-repression by our compounds were compared to caspase-3 alone and caspase 3 repressed by the presence of XIAP fusion protein.
as §2

GST-HIAP2 (cIAP-1) BIR 3 = molecular target: T5, GST-HIAP2 (cIAP-1) BIR 3 (Homo sapiens, UniProt Q13490); assay: Fluorescence polarization-based competition assay, cIAP-1 Bir3; assay type: binding
T5 construct: made in house; host or cells: E. coli DH5-alpha
T5 sequence (Q13490 251-363): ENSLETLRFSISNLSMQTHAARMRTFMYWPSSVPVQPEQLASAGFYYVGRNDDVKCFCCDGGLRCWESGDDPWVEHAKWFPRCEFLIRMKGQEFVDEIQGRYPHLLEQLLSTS
Experimental: GST-HIAP2 (cIAP-1) BIR 3: HIAP2 coding sequence from amino acids 251-363 cloned into PGex4T3 via BamH1 and XhoI. The plasmid was transformed into E. coli DH5α for use in protein expression and purification.
as §3, §4, §5, §6

[3] = molecular target: T6, XIAP Bir3-RING (GST-BIR 3RING) (Homo sapiens, UniProt P98170); assay: Caspase de-repression assay using cellular extracts (apoptosome), XIAP Bir3-RING; assay type: biochemical; conditions: 293 cell S100 extract
T6 construct: made in house; host or cells: E. coli DH5-alpha
T6 sequence (P98170 246-497): as the sequence (P98170 246-497) above
Experimental: as §1, §2

MDA-MB-231 cells = assay: Survival assay (MTS) on MDA-MB-231 cells; assay type: cell-based; conditions: Homo sapiens, 72 hours, read-out: EC50 MDA-MB-231 breast derived cell line
Experimental: MDA-MD-231 (breast) and H460 (lung) cancer cells were cultured in RPMI1640 media supplemented with 10% FBS and 100 units/mL of Penicillin and Steptomycin.
Survival assays were routinely done on MDA-MB-231 and H460 cells. Cells were seeded in 96 well plates at a respective density of 5000 and 2000 cells per well and incubated at 37° C. in presence of 5% CO2 for 24 hours. Selected compounds were diluted into the media at various concentration ranging from 0.01 uM up to 100 uM. Diluted compounds were added onto the MDA-MB-231 cells. For H460 cells, the compounds were added either alone or in presence of 3 ng/ml of TRAIL. After 72 hours cellular viability was evaluated by MTS based assays. A solution of [3-(4,5-dimethylthiazol-2-yl)-5-(3-carboxymethoxyphenyl)-2-(4-sulfophenyl)-2H-tetrazolium, inner salt; MTS] was added onto cells for a period of 1 to 4 hours. Upon incubation the amount of converted MTS was evaluated using a Tecan spectrophotometer set at 570 nm.

T1 sequence (P98170 93-497): as the sequence (P98170 93-497) above

Compound | IC50 [1] [µM] | IC50 (GST-XIAP BIR3RING) [µM] | IC50 (GST-HIAP1(cIAP-2) BIR 3) [µM] | IC50 [2] [µM] | IC50 (GST-HIAP2 (cIAP-1) BIR 3) [µM] | IC50 [3] [µM] | EC50 (MDA-MB-231 cells) [µM]
CC(C)[C@H](NC(=O)[C@H](C)N)C(=O)N1CCC[C@H]1CN(CCc1ccccc1)C(=O)OCc1ccccc1 [Compound 15] | > 10 | < 1 | < 1 | > 10 | < 1 | < 10 | –
CC(C)[C@H](NC(=O)[C@H](C)N)C(=O)N1CCC[C@H]1CN(CCc1ccccc1)C(=O)CCc1ccccc1 [Compound 21] | > 10 | < 1 | < 1 | > 10 | < 1 | < 1 | –
CC(C)[C@H](NC(=O)[C@H](C)N)C(=O)N1CCC[C@H]1CN(CCc1ccccc1)C(=O)Cc1ccccc1 [Compound 23] | > 10 | < 1 | < 1 | > 10 | < 1 | < 1 | –
CN[C@@H](C)C(=O)N[C@H](C(=O)N1CCC[C@H]1CN(CCc1ccccc1)C(=O)CCc1ccccc1)C(C)(C)C [Compound 27] | < 10 | < 1 | < 1 | > 10 | < 1 | < 1 | –
CC(C)[C@H](NC(=O)[C@H](C)N)C(=O)N1CCC[C@H]1CN(CCCCO)CCc1ccccc1 [Compound 29] | < 10 | < 10 | < 1 | > 10 | < 1 | < 1 | –
CC(C)[C@H](NC(=O)[C@H](C)N)C(=O)N1CCC[C@H]1CN(CCc1ccccc1)C(=O)CCCc1ccccc1 [Compound 31] | > 10 | < 1 | < 1 | > 10 | < 1 | < 1 | –
CN[C@@H](C)C(=O)N[C@H](C(=O)N1CCC[C@H]1CN(CCc1ccccc1)C(=O)[C@H](N)Cc1ccccc1)C(C)(C)C [Compound 42] | – | < 1 | < 1 | – | < 1 | – | < 5
CN[C@@H](C)C(=O)N[C@H](C(=O)N1CCC[C@H]1CN(CCc1ccccc1)C(=O)[C@@H](N)Cc1ccccc1)C(C)(C)C [Compound 44] | – | < 10 | < 1 | – | < 1 | – | < 5
CN[C@@H](C)C(=O)N[C@H](C(=O)N1CCC[C@H]1CN(CCc1ccccc1)C(=O)c1ccc(F)cc1)C(C)(C)C [Compound 75] | – | – | – | – | – | – | < 5
CN[C@@H](C)C(=O)N[C@@H](CCc1ccccc1)C(=O)N1CCC[C@H]1CN(CCc1ccccc1)C(=O)[C@H](N)Cc1ccc(OC)cc1 [Compound 84] | – | – | – | – | – | – | < 5
CN[C@@H](C)C(=O)N[C@@H](CCc1ccccc1)C(=O)N1CCC[C@H]1CN(CCc1ccccc1)C(=O)[C@H](N)Cc1ccccc1 [Compound 89] | – | – | – | – | – | – | < 5

Continued, in another order:

IC50 [1] [µM] | IC50 (GST-XIAP BIR3RING) [µM] | IC50 (GST-HIAP1(cIAP-2) BIR 3) [µM] | IC50 [2] [µM] | IC50 (GST-HIAP2 (cIAP-1) BIR 3) [µM] | IC50 [3] [µM] | Compound | EC50 (MDA-MB-231 cells) [µM]
> 10 | < 10 | < 1 | > 10 | < 1 | < 1 | CC(C)[C@H](NC(=O)[C@H](C)N)C(=O)N1CCC[C@H]1CN(CCc1ccccc1)S(C)(=O)=O [Compound 17] | –
> 10 | < 1 | < 1 | > 10 | < 1 | < 1 | CC(C)[C@H](NC(=O)[C@H](C)N)C(=O)N1CCC[C@H]1CNCCc1ccccc1 [Compound 18] | –
> 10 | < 1 | < 1 | > 10 | < 1 | < 1 | CC(=O)N(CCc1ccccc1)C[C@@H]1CCCN1C(=O)[C@@H](NC(=O)[C@H](C)N)C(C)C [Compound 19] | –
> 10 | < 1 | < 1 | > 10 | < 1 | < 1 | CC(C)[C@H](NC(=O)[C@H](C)N)C(=O)N1CCC[C@H]1CN(CCc1ccccc1)C(=O)C(F)(F)F [Compound 20] | –
> 10 | < 1 | < 1 | > 10 | < 1 | < 1 | CCCC(=O)N(CCc1ccccc1)C[C@@H]1CCCN1C(=O)[C@@H](NC(=O)[C@H](C)N)C(C)C [Compound 22] | –
> 10 | < 1 | < 1 | > 10 | < 1 | < 1 | CC(C)[C@H](NC(=O)[C@H](C)N)C(=O)N1CCC[C@H]1CN(CCc1ccccc1)C(=O)CN [Compound 30] | –
